According to patent publication US11065292B2, “Feijoa fruit extract” (CALLAGHAN INNOVATION, priority 2012, dated 2021):

How the values were obtained:
[1] = test system: collagen-induced arthritis (CIA) mice; test: Collagen-induced arthritis mice: clinical score, treadmill, histology, radiology; type: in vivo
splenocytes of CIA mice = test: Cytokine ELISA on splenocytes of CIA mice; type: in vivo; settings: mean ± SD, 5 mice
Experimental: The production of IL-2, IL-4, IL-6, and IFN-γ from mitogen-stimulated splenocytes was determined as previously described (Chouaib, S.; Welte, K.; Mertelsman, R.; Dupont, B.; J. Immunol., 1985, 135, 1172-1179). Spleens were gently teased with forceps in the culture medium producing a suspension of spleen cells (CM, RPMI 1640 containing 10% fetal bovine serum, 2 mM L-glutamine, 1×10^5 units/L of penicillin and streptomycin). The red blood cells were lysed with 3 mL of lysing buffer (0.16 mol/L ammonia chloride Tris buffer, pH 7.2) at 37° C. for 5 minutes. The cells were then washed with CM twice. The cell concentrations were counted and adjusted to 2×10^6 cells/mL. Splenocytes ([…]) were cultured in triplicate on 96-well flat-bottom culture plates. Splenocytes (0.1 mL/well) were stimulated with ConA (1×10^−2 g/L, 0.1 mL/well) to induce IL-2, IL-4 and IFN-γ production. In other plates, splenocytes were cultured with lipopolysaccharide (1×10^−6 g/L) to induce IL-6 production. These plates were incubated at 37° C., 5% CO2; the culture time for IL-2, IL-4 and IL-6 is 24 hours (or 72 hours for IFN-γ). After incubation, supernatants were collected and stored at −70° C. The cytokines were determined by sandwich ELISA as previously described using a commercial kit.
To establish whether the protective effect of the feijoa fruit extract was related to the anti-inflammatory response observed in the CIA mice, pro-inflammatory cytokines (TNF-α, IL-2 and INF-γ) were investigated using the ELISA assay described in Example 3 (Table 9). It is well known that such cytokines play crucial roles in joint destruction by damaging the synovial cells within the joint. Consequently, a reduction in synovial cells within the joint results in an increase in friction, which in turn, results in inflammation and the potential development of arthritis.

[2] = day 56-79, diet with extract (1.8 mg/day) or 10 mg/kg methotrexate, mean ± SD, 5 mice

CN(Cc1cnc2nc(N)nc(N)c2n1)c1ccc(C(=O)N[C@@H](CCC(=O)O)C(=O)O)cc1 [Methotrexate, methotrexate]
Clinical Score (paw swelling) ([1]; day 56-79, diet with extract (1.8 mg/day) or 10 mg/kg methotrexate, 5 mice): 10.5 ± 0.7 | Foot pressure (treadmill) [1, 2]: 141.23 ± 5.28 | Running Speed (treadmill) [1, 2]: 121.36 ± 1.69 mm/s | Histological evaluation of joint sections (H&E) ([1]; end of trial, FIGS. 2, 3): relatively normal joint structures with little soft tissue swelling | IFN-γ level by splenocytes (splenocytes of CIA mice): 182 ± 21 pg/mL | IL-2 level by splenocytes (splenocytes of CIA mice): 104 ± 10 pg/mL | TNF-α level by splenocytes (splenocytes of CIA mice): 255 ± 15 pg/mL
